The test concerns the target T1, B1R of the rat (Rattus norvegicus, UniProt P97583).
T1 construct: expressed in transfected cells; host or cells: CHO K1 cells (rB1R cells)
T1 sequence (P97583 1-337): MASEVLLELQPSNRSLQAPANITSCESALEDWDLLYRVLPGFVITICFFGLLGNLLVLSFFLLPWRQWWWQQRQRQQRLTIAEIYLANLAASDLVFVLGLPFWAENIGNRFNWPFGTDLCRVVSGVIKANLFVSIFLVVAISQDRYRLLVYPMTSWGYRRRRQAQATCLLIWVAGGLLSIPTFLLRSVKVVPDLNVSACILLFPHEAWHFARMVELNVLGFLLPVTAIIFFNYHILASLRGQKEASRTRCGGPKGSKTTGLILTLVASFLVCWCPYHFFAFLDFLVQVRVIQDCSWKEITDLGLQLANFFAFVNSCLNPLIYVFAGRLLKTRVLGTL
As to the kind of experiment: FLIPR Ca2+ influx assay, B1R antagonism, rat (rB1R CHO K1 cells). It is filed as cell-based. To be noted: test substance 10 μM, CHO K1 cells stably transfected with rat B1R, agonist Des-Arg9-bradykinin at EC80, % inhibition compared with maximum achievable inhibition; for inhibition at 10 µM: read-out: B1R antagonism, rat [10 μM] % inhibition. As to the method: The agonistic or antagonistic action of substances can be quantified on the bradykinin receptor 1 (B1R) of the species human and rat using ectopically expressing cell lines (CHO K1 cells) and with the aid of a Ca^2+-sensitive dye (Fluo-4) using a fluorescent imaging plate reader (FLIPR). The indication in % activation is based on the Ca^2+ signal after addition of Lys-Des-Arg^9-bradykinin (0.5 nM) or Des-Arg^9-bradykinin (100 nM). Antagonists lead to suppression of the Ca^2+ influx after the addition of the agonist. % Inhibition compared with the maximum achievable inhibition is indicated.
The agonistic or antagonistic action of substances can be determined on the bradykinin receptor 1 (B1R) of the species human and rat using the following assay. According to this assay, the Ca^2+ influx through the channel is quantified with the aid of a Ca^2+-sensitive dye (Fluo-4 type, Molecular Probes Europe BV, Leiden, Netherlands) using a Fluorescent Imaging Plate Reader (FLIPR, Molecular Devices, Sunnyvale, USA).
Chinese hamster ovary cells (CHO K1 cells) which have been stably transfected with the human B1R gene (hB1R cells) or with the B1R gene of the rat (rB1R cells) are used. For functional studies, the cells are plated out on black 96-well plates having a clear base (BD Biosciences, Heidelberg, Germany or Greiner, Frickenhausen, Germany) in a density of 20,000-35,000 cells/well. The cells are incubated overnight at 37° C. and with 5% CO2 in culture medium (hB1R cells: Nutrient Mixture Ham's F12, Gibco Invitrogen GmbH, Karlsruhe, Germany or DMEM, Sigma-Aldrich, Taufkirchen, Germany; rB1R cells: D-MEM/F12, Gibco Invitrogen GmbH, Karlsruhe, Germany), with 10 vol. % FBS (fetal bovine serum, Gibco Invitrogen GmbH, Karlsruhe, Germany or PAN Biotech GmbH, Aidenbach, Germany).
On the following day, the cells are loaded for 60 minutes at 37° C. with 2.13 μM Fluo-4 (Molecular Probes Europe BV, Leiden, Netherlands) in HBSS buffer (Hank's buffered saline solution, Gibco Invitrogen GmbH, Karlsruhe, Germany) […] (Sigma-Aldrich, Taufkirchen, Germany) and 10 mM HEPES (Sigma-Aldrich, Taufkirchen, Germany). The plates are then washed twice with HBSS buffer, and HBSS buffer additionally containing 0.1% BSA (bovine serum albumin; Sigma-Aldrich, Taufkirchen, Germany), 5.6 mM glucose and 0.05% gelatin (Merck KGaA, Darmstadt, Germany) is added to the plates. After incubation for a further 20 minutes at room temperature, the plates are inserted into the FLIPR for Ca^2+ measurement.
Alternatively, washing is carried out with buffer A (15 mM HEPES, 80 mM NaCl, 5 mM KCl, 1.2 mM CaCl2, 0.7 mM MgSO4, 2 g/l glucose, 2.5 mM probenecid) followed by loading with buffer A with added 2.5 μM Fluo-4 and 0.025% Pluronic F127 (Sigma-Aldrich, Taufkirchen, Germany). The cells are then washed twice with buffer A and incubated for 30 minutes at room temperature with buffer A additionally containing 0.05% BSA and 0.05% gelatin and are then inserted into the FLIPR for Ca^2+ measurement.
The Ca^2+-dependent fluorescence is measured before and after the addition of substances (λex=488 nm, λem=540 nm). Quantification is carried out by measuring the highest fluorescence intensity (FC, fluorescence counts) over time.
The FLIPR protocol consists of two substance additions. Test substances (10 μM) are first pipetted onto the cells and the Ca^2+ influx is compared with the control (hB1R: Lys-Des-Arg^9-bradykinin >=50 nM; rB1R: Des-Arg^9-bradykinin 10 μM). This gives the activation in %, based on the Ca^2+ signal after addition of Lys-Des-Arg^9-bradykinin (>=50 nM) or Des-Arg^9-bradykinin (10 μM). After 10-20 minutes' incubation, Lys-Des-Arg^9-bradykinin (hB1R) or Des-Arg^9-bradykinin (rB1R) is applied in the concentration of the EC80, and the influx of Ca^2+ is likewise determined. Antagonists lead to suppression of the Ca^2+ influx. The % inhibition compared with the maximum achievable inhibition is calculated. […]

Regarding `COc1cc(C)c(S(=O)(=O)N2CCCCC2COCC(=O)N2CCC(CCCN3CCCC3)(c3ccncc3)CC2)c(C)c1` (stereo not shown) [Example 28, 2-[[1-[(4-Methoxy-2,6-dimethyl-phenyl)sulfonyl]-piperidin-2-yl]-methoxy]-1-[4-pyridin-4-yl-4-(3-pyrrolidin-1-yl-propyl)-piperidin-1-yl]-ethanone], the inhibition at 10 µM came to 97%.

`COc1cc(C)c(S(=O)(=O)N(C)CCOCC(=O)N2CCC(CCCN3CCCC3)(c3ccncc3)CC2)c(C)c1` [Example 30, 4-Methoxy-N,2,6-trimethyl-N-[2-[2-oxo-2-[4-pyridin-4-yl-4-(3-pyrrolidin-1-yl-propyl)-piperidin-1-yl]-ethoxy]-ethyl]-benzenesulfonic acid amide]: the inhibition at 10 µM was determined as 100%.

On to `COc1cc(C)c(S(=O)(=O)N(C)CCOCC(=O)N2CCC(CCCN3CCCC3)(c3ccncc3)CC2)c(C)c1C` [Example 32, 4-Methoxy-N,2,3,6-tetramethyl-N-[2-[2-oxo-2-[4-pyridin-4-yl-4-(3-pyrrolidin-1-yl-propyl)-piperidin-1-yl]-ethoxy]-ethyl]-benzenesulfonic acid amide], for which the inhibition at 10 µM worked out at 100%.

As for `COc1cc(C)c(S(=O)(=O)N(CCOCC(=O)N2CCC(CCCN3CCCC3)(c3ccncc3)CC2)Cc2ccccc2)c(C)c1` [Example 39, N-Benzyl-4-Methoxy-2,6-dimethyl-N-[2-[2-oxo-2-[4-pyridin-4-yl-4-(3-pyrrolidin-1-yl-propyl)-piperidin-1-yl]-ethoxy]-ethyl]-benzenesulfonic acid amide], the inhibition at 10 µM amounted to 99%.

For the molecule `COc1cc(C)c(S(=O)(=O)N(CCOCC(=O)N2CCC(CCCN3CCCC3)(c3ccncc3)CC2)Cc2ccccc2)c(C)c1` [Example 40, N-Benzyl-4-Methoxy-2,6-dimethyl-N-[2-[2-oxo-2-[4-pyridin-4-yl-4-(3-pyrrolidin-1-yl-propyl)-piperidin-1-yl]-ethoxy]-ethyl]-benzenesulfonic acid amide], the “B1R antagonism, rat [10 μM] % inhibition” value is recorded as 100%.

On to `O=C(COCC1CCCCN1S(=O)(=O)c1ccccc1C(F)(F)F)N1CCC(CCCN2CCCC2)(c2ccncc2)CC1` (stereo not shown) [Example 43, 1-[4-Pyridin-4-yl-4-(3-pyrrolidin-1-yl-propyl)-piperidin-1-yl]-2-[[1-[[2-(trifluoromethyl)-phenyl]sulfonyl]-piperidin-2-yl]-methoxy]-ethanone], for which the inhibition at 10 µM was 101%.

As to `O=C(COCC1CCCCN1S(=O)(=O)c1ccccc1C(F)(F)F)N1CCC(CCCN2CCCC2)(c2ccncc2)CC1` (stereo not shown) [Example 44, 1-[4-Pyridin-4-yl-4-(3-pyrrolidin-1-yl-propyl)-piperidin-1-yl]-2-[[1-[[2-(trifluoromethyl)-phenyl]sulfonyl]-piperidin-2-yl]-methoxy]-ethanone], the “B1R antagonism, rat [10 μM] % inhibition” value turned out to be 100%.

As to `COc1cc(C)c(S(=O)(=O)N2CCCCC2CCOCC(=O)N2CCC(CCCN3CCCC3)(c3cccnc3)CC2)c(C)c1` (stereo not shown) [Example 45, 2-[2-[1-[(4-Methoxy-2,6-dimethyl-phenyl)sulfonyl]-piperidin-2-yl]-ethoxy]-1-[4-pyridin-3-yl-4-(3-pyrrolidin-1-yl-propyl)-piperidin-1-yl]-ethanone], the inhibition at 10 µM was 100%.

For `COc1cc(C)c(S(=O)(=O)N2CCCCC2CCOCC(=O)N2CCC(CCCN3CCCC3)(c3cccnc3)CC2)c(C)c1` (stereo not shown) [Example 46, 2-[2-[1-[(4-Methoxy-2,6-dimethyl-phenyl)sulfonyl]-piperidin-2-yl]-ethoxy]-1-[4-pyridin-3-yl-4-(3-pyrrolidin-1-yl-propyl)-piperidin-1-yl]-ethanone], the “B1R antagonism, rat [10 μM] % inhibition” value turned out to be 101%.

For the molecule `CN(CCCC(=O)N1CCC(CCCN2CCCC2)(c2cccnc2)CC1)S(=O)(=O)c1cccc(C(F)(F)F)c1` [Example 47, N-Methyl-N-[4-Oxo-4-[4-pyridin-3-yl-4-(3-pyrrolidin-1-yl-propyl)-piperidin-1-yl]-butyl]-3-(trifluoromethyl)-benzenesulfonic acid amide], the inhibition at 10 µM amounted to 53%.

As for `COc1cc(C)c(S(=O)(=O)N(CCOCC(=O)N2CCC(CCCN3CCCC3)(c3ccncc3)CC2)c2ccccc2)c(C)c1` [Example 50, 4-Methoxy-2,6-Dimethyl-N-[2-[2-oxo-2-[4-pyridin-4-yl-4-(3-pyrrolidin-1-yl-propyl)-piperidin-1-yl]-ethoxy]-ethyl]-N-phenyl-benzenesulfonic acid amide], the inhibition at 10 µM was 100%.

`O=C(COCC1CCc2ccccc2N1S(=O)(=O)c1ccc2ccccc2c1)N1CCC(CCCN2CCCC2)(c2cccnc2)CC1` (stereo not shown) [Example 51, 2-[[1-(Naphthalen-2-ylsulfonyl)-1,2,3,4-tetrahydro-quinolin-2-yl]-methoxy]-1-[4-pyridin-3-yl-4-(3-pyrrolidin-1-yl-propyl)-piperidin-1-yl]-ethanone]: the inhibition at 10 µM worked out at 80%.

`O=C(COCC1CCc2ccccc2N1S(=O)(=O)c1ccc2ccccc2c1)N1CCC(CCCN2CCCC2)(c2cccnc2)CC1` (stereo not shown) [Example 52, 2-[[1-(Naphthalen-2-ylsulfonyl)-1,2,3,4-tetrahydro-quinolin-2-yl]-methoxy]-1-[4-pyridin-3-yl-4-(3-pyrrolidin-1-yl-propyl)-piperidin-1-yl]-ethanone]: the “B1R antagonism, rat [10 μM] % inhibition” value was 83%.

Consider `COc1cc(C)c(S(=O)(=O)N2c3ccccc3CCC2COCC(=O)N2CCC(CCCN3CCCC3)(c3ccncc3)CC2)c(C)c1` (stereo not shown) [Example 55, 2-[[1-[(4-Methoxy-2,6-dimethyl-phenyl)sulfonyl]-1,2,3,4-tetrahydro-quinolin-2-yl]-methoxy]-1-[4-pyridin-4-yl-4-(3-pyrrolidin-1-yl-propyl)-piperidin-1-yl]-ethanone], for which the inhibition at 10 µM stood at 98%.

Turning to `Cc1cccc(Cl)c1S(=O)(=O)N1CCCCC1CCCC(=O)N1CCC(CCCN2CCCC2)(c2ccncc2)CC1` (stereo not shown) [Example 56, 4-[1-[(2-Chloro-6-methyl-phenyl)sulfonyl]-piperidin-2-yl]-1-[4-pyridin-4-yl-4-(3-pyrrolidin-1-yl-propyl)-piperidin-1-yl]-butan-1-one], the inhibition at 10 µM stood at 97%.

As for `O=C(CCCC1CCCCN1S(=O)(=O)c1ccccc1C(F)(F)F)N1CCC(CCCN2CCCC2)(c2cccnc2)CC1` (stereo not shown) [Example 57, 1-[4-Pyridin-3-yl-4-(3-pyrrolidin-1-yl-propyl)-piperidin-1-yl]-4-[1-[[2-(trifluoromethyl)-phenyl]sulfonyl]-piperidin-2-yl]-butan-1-one], the inhibition at 10 µM turned out to be 70%.

In general, inhibition refers to the drop in the measured response relative to a control, in per cent.

For the origin of these results see patent publication US8124624B2, “Substituted sulfonamide compounds” (Gruenenthal GmbH, priority 2008, dated 2012).
